This experiment is described as follows: Time-Resolved Fluorescence Resonance Energy Transfer (TR-FRET) Assay: The inhibition of the Mcl-1/Bim interaction was measured using a time-resolved fluorescence resonance energy transfer (TR-FRET) assay. The recombinant human Mcl-1 (C-terminally 6ÃHis tagged Mcl-1 containing residues 171-327) was generated at Amgen Inc (Thousand Oaks, Calif.). A biotinylated peptide derived from human Bim …. In general terms: Time-resolved FRET reads energy transfer from a long-lived donor to a nearby acceptor.

For three molecules, IC50 results are on record in ChEMBL document CHEMBL5728073, “Compounds that inhibit Mcl-1 protein” (2020).

Usually IC50 stands for the concentration needed to halve the response being measured.

Description: Time-Resolved Fluorescence Resonance Energy Transfer (TR-FRET) Assay: The inhibition of the Mcl-1/Bim interaction was measured using a time-resolved fluorescence resonance energy transfer (TR-FRET) assay. […] A biotinylated peptide derived from human Bim (residues 51-76) was purchased from CPC Scientific (San Jose, Calif.). The TR-FRET assay was conducted in a 384-well white OptiPlate (PerkinElmer, Waltham, Mass.) in a total volume of 40 uL. […] The reaction plates were further incubated overnight and then were read on an EnvisionÂ multimode reader (PerkinElmer). […] The IC50 values of test compounds were determined from duplicate data by analyzing competition curves using a four-parameter sigmoidal model in GraphPad Prism.

As to `CO[C@@]1(CN2CCN3CCC(F)(F)C[C@@H]3C2)/C=C\C[C@H](C)[C@@H](C)S(=O)(=O)NC(=O)c2ccc3c(c2)N(C[C@@H]2CC[C@H]21)C[C@@]1(CCCc2cc(Cl)ccc21)CO3`, the IC50 is 0.494 nM.
The same measure for `CCCCN1CCN(C[C@]2(OC)/C=C/C[C@H](C)[C@@H](C)S(=O)(=O)NC(=O)c3ccc4c(c3)N(C[C@@H]3CC[C@H]32)C[C@@]2(CCCc3cc(Cl)ccc32)CO4)CC1`: 0.225 nM; for `C[C@@H]1[C@@H](C)C/C=C\[C@](O)(CN2CCN3CCCC[C@@H]3C2)[C@@H]2CC[C@H]2CN2C[C@@]3(CCCc4cc(Cl)ccc43)COc3ccc(cc32)C(=O)NS1(=O)=O`: 0.097 nM.
